These results are taken from patent US9499552B2, “Pyrazolo[1,5-A]pyrimidine derivative and use of anti-tumor thereof” (YANTAI UNIVERSITY, priority 2014, dated 2016).

Usually EC50 stands for the concentration that produces a half-maximal response. Higher therefore signals a need for much substance. In general, IC50 refers to the concentration that gives 50% inhibition.

SMILES strings stand for the structures. Bounds are passed on as bounds.

The test system of data set [1] is prostate cancer RM-1 transplanted tumor. Put plainly: Mice prostate cancer RM-1 transplanted tumor model. It counts as in vivo. The conditions noted are these: for Inhibition rate of tumor growth / Tumor weight / body weight of Animals, Final / body weight of Animals, Initial: male C57/BL6 mice, i.p., Docetaxel 10 mg/kg × 3, M110 50 mg/kg × 4. Here is the method: Male C57/BL6 mice (18-22 g) were used. The experiment procedures are summarized as follows: mice who had prostate cancer RM-1 and grown well were sacrificed by cervical dislocation. Under sterile conditions, tumor mass growing well was stripped off, homogenized, diluted with physiological saline in 1:4. Each mouse was inoculated 0.2 mL of the tumor solution in the armpit and back (approximately 2*10^6 cells). On the next day, the animals were randomized into groups and the administration began. Compound M110 was administered at 50 mg/kg by intraperitoneal injection at 24 h after inoculation. The dosing volume was 0.1 mL/10 g. At the same time, docetaxel control group and solvent control group were set. As for the docetaxel group, the animals were administered by intraperitoneal injection at 10 mg/kg dose, the dosing volume was 0.1 mL/10 g. After continuous administration for 10 days, the animals were sacrificed by cervical dislocation, weighed the body and the tumor, respectively. Inhibition rate of tumor growth (%) was calculated, and the results were statistically processed.

In another data set the target is T1, mice TRPC6 (Mus musculus, UniProt Q61143).
T1 construct: expressed in transfected cells; host or cells: HEK293
T1 sequence (Q61143 1-930): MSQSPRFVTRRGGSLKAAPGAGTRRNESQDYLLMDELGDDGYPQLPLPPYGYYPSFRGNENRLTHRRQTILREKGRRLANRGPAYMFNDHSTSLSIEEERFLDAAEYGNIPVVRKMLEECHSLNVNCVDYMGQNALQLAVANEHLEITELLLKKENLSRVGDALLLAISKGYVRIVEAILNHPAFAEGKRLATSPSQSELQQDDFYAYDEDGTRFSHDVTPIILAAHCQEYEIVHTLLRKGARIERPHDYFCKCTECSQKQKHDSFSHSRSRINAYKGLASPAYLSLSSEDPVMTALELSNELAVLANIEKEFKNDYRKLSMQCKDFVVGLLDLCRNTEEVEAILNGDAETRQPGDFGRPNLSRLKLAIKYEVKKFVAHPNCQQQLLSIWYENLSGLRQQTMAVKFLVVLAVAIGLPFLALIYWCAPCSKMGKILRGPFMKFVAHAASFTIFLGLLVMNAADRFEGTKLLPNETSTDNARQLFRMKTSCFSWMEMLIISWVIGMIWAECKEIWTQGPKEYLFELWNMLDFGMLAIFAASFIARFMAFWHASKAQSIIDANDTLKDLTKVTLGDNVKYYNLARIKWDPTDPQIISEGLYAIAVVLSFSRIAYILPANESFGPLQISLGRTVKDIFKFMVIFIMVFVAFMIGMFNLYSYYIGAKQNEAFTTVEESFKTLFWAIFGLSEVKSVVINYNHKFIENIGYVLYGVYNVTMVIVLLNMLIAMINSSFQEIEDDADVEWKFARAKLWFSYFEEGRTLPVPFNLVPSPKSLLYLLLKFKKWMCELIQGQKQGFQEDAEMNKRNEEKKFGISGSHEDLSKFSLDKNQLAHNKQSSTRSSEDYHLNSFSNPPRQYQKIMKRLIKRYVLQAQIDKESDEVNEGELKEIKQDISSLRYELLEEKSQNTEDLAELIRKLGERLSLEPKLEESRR
Put plainly: Fluorescence calcium flux (Fluo4) detection of TRPC6 activation. The conditions noted are these: HEK293 cells expressing mice TRPC6. It counts as cell-based. Here is the method:
Similar fluorescence calcium flux was used to detect the effect of M085 on [Ca^2+] concentration in HEK293 cells expressing mice TRPC6. The cells were stained using Ca^2+ indicator Fluo4. At 30 s, 0.1 μM, 0.4 μM, 1.1 μM, 3.3 μM, 10 μM, 30 μM of M085 were added. […] Wherein, M086 was subjected to fluorescent calcium flux detection and fluorescent membrane potential detection, respectively.
In general terms: Calcium flux is commonly read through the fluorescence of an indicator in the cells.

The target in data set [2] is T2, TRPC6 channel (Mus musculus, UniProt Q61143).
T2 construct: expressed in transfected cells; host or cells: HEK293
T2 sequence (Q61143 1-930): T1 sequence (Q61143 1-930)
Put plainly: Whole-cell patch clamp assay, TRPC6 activation. It counts as cell-based. The conditions noted are these: for activation effect for TRPC6 channel (whole-cell patch clamp): HEK293 cells clamped at -100~+100 mV. An excerpt:
HEK293 cells were clamped at −100˜+100 mV in the whole-cell recording mode.
(In general: In patch-clamp work, channel activity is measured electrically.)

The subject of data set [3] is HEK293 cells which were not transfected with TRPC6 ion channels. Put plainly: Fluorescent membrane potential detection in non-transfected control cells. Particulars: M085 0.1-30 μM. It counts as cell-based.
The next data set has as its target T3, TRPC6 ion channels (Mus musculus, UniProt Q61143).
T3 construct: expressed in transfected cells; host or cells: HEK293 co-expressing M5 muscarinic receptor
T3 sequence (Q61143 1-930): T1 sequence (Q61143 1-930)
As to the kind of experiment: Fluorescent membrane potential (FMP) detection of TRPC6 activation. It counts as cell-based. The conditions noted are these: M085 at 0.4 μM~30 μM; HEK293 cells permanently transfected with TRPC6. Here is the method:
Pyrazolopyrimidines and their derivatives activated TRPC6 ion channels (FIG. 1). In HEK293 cells permanently transfected with TRPC6 ion channels, M085 was used as activator to detect the fluorescent membrane potential. Firstly, cells were stained with FLIPR membrane potential dyes (FMP). At 30 s, 0.1 μM, 0.4 μM, 1.1 μM, 3.3 μM, 10 μM, 30 μM of M085 were added, respectively.

Data set [4] deals with T2, TRPC6 channel. Put plainly: Whole-cell patch clamp assay, TRPC6 inhibition (carbachol-activated). It counts as cell-based. The conditions noted are these: for inhibition of TRPC6 channel (whole-cell patch clamp): HEK293 cells clamped at -100~+100 mV. On the procedure:
M107 is representative (FIG. 3B, C). HEK293 cells were clamped at −100˜+100 mV in whole-cell recording mode. TRPC6 ion channels activated by carbachol (CCh, 30 μM) was inhibited by M107 (20 μM). At −100˜+100 mV, 20 μM of M107 provided 60% and 20% of inhibition rate for CCh (n=5).

Data set [5] concerns Lncap human prostate cancer cell line. As to the kind of experiment: MTT cytotoxic activity, Lncap. It counts as cell-based. The conditions noted are these: 72 h, read-out: IC50 cytotoxic activity in vitro. On the procedure:
(§1) After the cells in logarithmic growth phase were digested with 0.25% trypsin-EDTA, a cell suspension at a certain concentration was prepared. Depending on cell growth rate, they were inoculated in 96-well plates at 1000-2000 cells/well. To each well 100 μL of the cell suspension was added. After 24 h, fresh medium containing various concentrations of the compounds or the corresponding solvent were added at 100 μL per well (DMSO final concentration <0.1%). 5 to 7 dose groups were arranged for each test compound. Each group comprised at least 3 parallel wells. After further culturing at 37° C. for 72 h, the supernatant was discarded. 100 μL of fresh serum-free medium containing 0.5 mg/mL MTT was added to each well, further cultured for 2 h. After the supernatant was discarded, to each well was added 200 μL DMSO to dissolve MTT formazan precipitate. After mixing homogeneously by a microoscillator, optical density (OD) was measured at 450 nm of reference wavelength, and at 570 nm of detection wavelength by a Microplate reader. The tumor cells treated by the solvent control was used as the control group. The inhibition rate of tumor cells for the compounds were calculated by the following equation and IC50 was calculated by the half of inhibition equation: […]

Data set [6] relates to Pc3 human prostate cancer cell line. As to the kind of experiment: MTT cytotoxic activity, Pc3. It counts as cell-based. Particulars: 72 h, read-out: IC50 cytotoxic activity in vitro. Here is the method: as §1
The subject of data set [7] is MCF7 human breast cancer cell line. As to the kind of experiment: MTT cytotoxic activity, MCF7. It counts as cell-based. The conditions noted are these: 72 h, read-out: IC50 cytotoxic activity in vitro. On the procedure: as §1
Data set [8] has as its system H460 human lung cancer cell line. As to the kind of experiment: MTT cytotoxic activity, H460. It counts as cell-based. The conditions noted are these: 72 h, read-out: IC50 cytotoxic activity in vitro. Here is the method:
as §1

Data set [9] concerns KB human oral epithelium carcinoma cell line. As to the kind of experiment: MTT cytotoxic activity, KB. It counts as cell-based. Particulars: 72 h, read-out: IC50 cytotoxic activity in vitro. On the procedure: as §1
Data set [10] relates to RM-1 mouse prostate cancer cell line. As to the kind of experiment: MTT cytotoxic activity, RM-1. It counts as cell-based. The conditions noted are these: RM-1, MTT, 72 h; read-out: IC50 cytotoxic activity in vitro. On the procedure: as §1
The subject of data set [11] is Du145 human prostate cancer cell line. As to the kind of experiment: MTT cytotoxic activity, Du145. It counts as cell-based. The conditions noted are these: 72 h, read-out: IC50 cytotoxic activity in vitro. On the procedure: as §1

Turning to `CC(=O)O[C@@]12CO[C@@H]1C[C@H](O)[C@@]1(C)C(=O)[C@H](O)C3=C(C)[C@@H](OC(=O)[C@H](O)[C@@H](NC(=O)OC(C)(C)C)c4ccccc4)C[C@@](O)([C@@H](OC(=O)c4ccccc4)[C@H]21)C3(C)C` [Docetaxel, docetaxel, reference compound], in [1], the “Inhibition rate of tumor growth” value is listed as 32%; the Tumor weight stood at 1.77 ± 0.61 g; the “body weight of Animals, Final” value was 18.43 ± 2.17 g; the “body weight of Animals, Initial” value stood at 20.00 ± 1.07 g.
Turning to `Cc1nn2c(O)cc(C3CCN(C(=O)OCc4ccccc4)CC3)nc2c1-c1ccc(F)cc1` [Compound M086], the “activating effect for TRPC6 ion channel (fluorescence calcium flux)” value on mice TRPC6 is on record as “exhibited activating effect”. The “activation effect for TRPC6 channel (whole-cell patch clamp)” value (from here on “activation effect for TRPC6 channel”) on TRPC6 channel [2] is listed as “have activation effect”.
For `CCOC(=O)N1CCC(c2cc(O)n3nc(C)c(-c4ccc(F)cc4)c3n2)CC1` [Compound M085], the “activating effect for TRPC6 ion channel (fluorescence calcium flux)” value on mice TRPC6 is “exhibited activating effect”. At mice TRPC6 (M085 at 3.3 μM~30 μM, Fluo4), the “intracellular [Ca2+]” value is “significantly increased”. In [3], the “fluorescent change (FMP)” value is given as “no significantly fluorescent change”. Also, the “activation effect for TRPC6 channel” value at TRPC6 channel [2] was “have activation effect”. Further, the EC50 on TRPC6 channel [2] (HEK293 cells, concentration response 0.04-10 μM, n=5-7) worked out at 2.5 µM. Besides, at TRPC6 ion channels, the “membrane depolarization (FMP fluorescence)” value is reported as “increase of membrane depolarization”.
Take `CCOC(=O)N1CCC(c2cc(O)n3nc(C)c(-c4ccc(C(F)(F)F)cc4)c3n2)CC1` [Compound M092]: the “activating effect for TRPC6 ion channel (fluorescence calcium flux)” value on mice TRPC6 is given as “exhibited activating effect”. Further, the “activation effect for TRPC6 channel” value at TRPC6 channel [2] is reported as “have activation effect”.
Regarding `Cc1nn2c(O)cc(C3CCN(C(=O)OC(C)(C)C)CC3)nc2c1-c1ccc(F)cc1` [Compound M107], the “inhibition rate for CCh-activated TRPC6 current, first value” at TRPC6 channel [4] (20 μM compound, CCh 30 μM, at -100~+100 mV (first printed, -100 mV), n=5) is recorded as 60%. Further, the “inhibition rate for CCh-activated TRPC6 current, second value” against TRPC6 channel [4] (20 μM compound, CCh 30 μM, at -100~+100 mV (second printed, +100 mV), n=5) was 20%. In addition, at TRPC6 channel [4], the “inhibition of TRPC6 channel (whole-cell patch clamp)” value is recorded as “inhibited TRPC6 channel”.
With `CCOC(=O)N1CCC(C)(c2cc(O)n3nc(C)c(-c4ccc(F)cc4)c3n2)CC1` [Compound M110], the “inhibition of TRPC6 channel (whole-cell patch clamp)” value against TRPC6 channel [4] is recorded as “inhibited TRPC6 channel”. Also, the IC50 was determined as 4.33 µM in data set [5]; 30.8 µM in data set [6]; 12.1 µM in data set [7]; 21.9 µM in data set [8]; 9.47 µM in data set [9]; 25.6 µM in data set [10]. Further, the IC50 in data set [11] is over 100 µM. Further, the “Inhibition rate of tumor growth” value in [1] is on record as 23%. In [1], this compound yielded a Tumor weight of 2.0 ± 0.73 g. The “body weight of Animals, Final” value in [1] is reported as 21.33 ± 1.51 g. The “body weight of Animals, Initial” value in data set [1] turned out to be 20.00 ± 0.76 g. Besides, the “pharmacological activity in vivo on RM-1 transplanted tumor growth” value in data set [1] (mice) was “inhibit growth of prostate cancer RM-1 transplanted tumor”.
On to `Cc1nn2c(O)cc(C3CCN(C(=O)OCc4ccccc4)CC3)nc2c1-c1ccc(Cl)cc1` [Compound M091], for which, at mice TRPC6, the “activating effect for TRPC6 ion channel (fluorescence calcium flux)” value is “exhibited activating effect”. Moreover, the “activation effect for TRPC6 channel” value at TRPC6 channel [2] is reported as “have activation effect”.
